Assay results reported in BigSolDB 2.1.

CCCCCCCCCCCCCCCCCCCCCCCCCCCCO
solubility (mole fraction)
Settings	298.2 K	303.2 K	308.2 K	313.2 K	318.2 K	323.2 K	328.2 K	333.2 K
in n-hexanol	0.000906	0.00126	0.00238	0.00436	0.00758	0.0148	0.0291	0.0602
in n-pentanol	0.000644	0.00115	0.00222	0.00375	0.00658	0.013	0.026	–
in toluene	0.0014	0.00246	0.00402	0.00744	0.0137	0.0291	0.0588	–
